Data on 7 compounds can be found in the NIST ThermoML archive (doi:10.1016/j.fluid.2013.06.028).

Numbers after ± are expanded uncertainties.

A short description of the series: activity coefficient (dimensionless); of the first substance listed, at infinite dilution; xn = mol fraction of the nth substance listed. The settings on record: 298 K; Liquid; Chromatography; x1 = 0.
For the compound `c1ccccc1` [benzene] + OCCO, the activity coefficient was determined as 32 ± 6.

Consider `Brc1ccccc1` [bromobenzene] + OCCO, for which the activity coefficient is 45 ± 10.

Turning to `Clc1ccccc1` [chlorobenzene] + OCCO, the activity coefficient turned out to be 40 ± 8.

Take `Fc1ccccc1` [fluorobenzene] + OCCO: the activity coefficient is 32 ± 10.

Regarding `Ic1ccccc1` [iodobenzene] + OCCO, the activity coefficient is 42 ± 10.

`c1ccc2ccccc2c1` [naphthalene] + OCCO: the activity coefficient was determined as 238 ± 51.

For the compound `Cc1ccccc1` [toluene] + OCCO, the activity coefficient was determined as 93 ± 12.
